Experimental data: patent US20240174641A1, “HETEROCYCLIC COMPOUNDS CAPABLE OF […]” (Boehringer Ingelheim International GmbH, priority 2022, published 2024)

Test system: dog STING (dSTING)
Test: Dog differential scanning fluorimetry (DSF) assay, thermal shift of dog STING protein
Format: binding
Conditions: DSF (dDSF); 100 μM compound, 3 μM dog STING protein; Tm with ligand minus Tm of protein alone
Text: The protein used for the biophysical experiments was a recombinant dog STING protein comprising its cytosolic cGAMP binding ectodomain. A codon optimized DNA sequence (for expression in Escherichia coli) encoding amino acid residues 149 to 375 of dog STING was synthesized by GeneArt (Regensburg, Germany) and inserted into a pET17b E. coli expression vector. The protein construct encodes an N-terminal 8×His-tag followed by tobacco etch virus protease (TEV) cleavage site and the above STING gene sequence. The resulting protein sequence for the used dog STING protein (SEQ ID No. 1) is listed below:
For expression of the above recombinant dog STING, the construct was transformed into E. coli BL21 DE3 strain and grown in shake flasks in LB-medium at 15° C. Expression was induced by addition of isopropyl β-D-1-thiogalactopyranoside to a final concentration of 1 mM and cultures shaken overnight. Cell pellets were centrifuged and stored at −70° C. until further use. Protein was purified by cell thawing in lysis buffer (20 mM TRIS-HCl, pH 8, 500 mM NaCl, 1 mM DTT, 0.5 mg/ml lysozyme, Complete Protease Inhibitor (Roche) and DNase (Roche)), followed by metal affinity purification using Ni-NTA resins and elution buffer consisting of 20 mM TRIS-HCl, pH 8, 500 mM NaCl, 1 mM DTT, 300 mM imidazole. Cleavage of the His-Tag using TEV-protease took place during dialysis in size exclusion buffer (20 mM TRIS-HCl, pH 8, 100 mM NaCl, 1 mM DTT) over night. To further purify the target protein a reverse Nickel affinity column was used and the flow through was applied to a size exclusion chromatography. The peak fraction was collected and concentrated to 5 mg/mL.
Dye fluorescence is quenched in aqueous environment and increases upon association of the dye with the hydrophobic parts of the unfolding protein. […] The inflection point of the curve represents the “melting” temperature of the protein (Tm) which is calculated numerically using the Boltzmann equation.
The thermal stability of the dog STING protein was measured in assay buffer containing 20 mM Tris, 150 mM NaCl at pH7.5. The assay uses 384-Well qPCR Plates (Catalog #781358, BRAND), Microseal® ‘B’ Adhesive Seals for PCR Plates (Catalog #MSB-1001, BIO-RAD) and was run on a CFX384 Real-Time System (Bio-Rad). A DMSO stock solution of SYPRO orange (SIGMA 55692-500UL) was prepared. Compound stock solutions (10 mM in DMSO) were diluted 1:2 in DMSO to an intermediate compound concentration of 5 mM and then further diluted 1:40 in assay buffer resulting in a compound concentration of 125 μM and 2.5% DMSO. Fluorescent dye stock solution (5000×SYPRO Orange) was then mixed with target protein and buffer to a concentration of 15 μM Protein and 25×SYPRO Orange. 2 μl of this protein-dye-mixture was added to 8 μl compound solution. Final volume was 10 μL. 3-6 well positions were used as negative control (protein with 2% DMSO). The plates were prepared for duplicate measurement and centrifuged for 2 min at 1000 g. In the measurement, 160 cycles of 0.5° C. were used (temperature ramp 15 s/cycle, 15° C. to 95° C.).
Final Assay concentrations for compound characterization were 100 μM compound, 3 μM target protein, 5×SYPRO Orange, and 2% DMSO in 10 μl. All dispensing steps were performed using a HamiltonStar pipetting robot (Hamilton).
Dissociation curves were processed in Bio-Rad CFX Manager. Peak type was set to “negative”. Compound codes for screen were assigned in the plate layout.
Two replicates of TM measurements were averaged, and the standard deviation was calculated. In cases of SD>1.5° C. the measurement was repeated.
The melting point (Tm) obtained for STING protein alone was subtracted from T obtained for protein incubated with ligand to generate ΔTm values.

Row | SMILES | Delta TM [°C]
1 | Cc1cccc2c(-c3c(F)cc(F)c4nn(C)cc34)nn(-c3ccc(N4CC5CCC4CC5C(=O)O)nc3)c12 (single isomer, unassigned) [Example 48-2] | 24.6
2 | Cc1cccc2c(-c3c(F)ccc4nn(C)cc34)nn(-c3ccc(N4CC5CCC4CC5C(=O)O)nc3)c12 (single isomer, unassigned) [Example 28-2] | 25.9
3 | CC(=O)N1C[C@@H]2C[C@H]1CN2c1ccc(-n2nc(-c3c(F)cc(F)c4nn(C)cc34)c3cccc(C)c32)cn1 [Example 50, 1-[(1S,4S)-5-(5-{5″,7″-difluoro-2″,7-dimethyl-1H,2″H-[3,4″-biindazol]-1-yl}pyridin-2-yl)-2,5-diazabicyclo[2.2.1]heptan-2-yl]ethan-1-one] | 25.0
4 | Cc1cccc2c(-c3cc(F)cc4nn(C)cc34)nn(-c3ccc(N4C[C@H]5C[C@@H]4C[C@@H]5C(=O)O)nc3)c12 (single isomer, unassigned) [Example 38-2] | 23.0
5 | Cc1cccc2c(-c3c(F)ccc4nn(C)cc34)nn(-c3ccc(N4CC5CCC4CC5C(=O)O)nc3)c12 (single isomer, unassigned) [Example 28-1] | 26.6
6 | Cc1cccc2c(-c3ccc(F)c4nn(C)c(F)c34)nn(-c3ccc(N4C[C@H]5C[C@@H]4C[C@@H]5C(=O)O)nc3)c12 (single isomer, unassigned) [Example 56-2] | 33.0
7 | Cc1cccc2c(-c3c(F)ccc4nn(C)cc34)nn(-c3ccc(N4CCOC(CC(=O)O)C4)nc3)c12 [Example 26-1, 2-[(2R)-4-(5-{5″-fluoro-2″,7-dimethyl-1H,2″H-[3,4″-biindazol]-1-yl}pyridin-2-yl)morpholin-2-yl]acetic acid] | 31.0
8 | Cc1cccc2c(-c3ccc(F)c4nn(C)c(F)c34)nn(-c3ccc(N4C[C@@H]5C[C@H]4C[C@H]5C(=O)O)nc3)c12 (single isomer, unassigned) [Example 56-1] | 33.0
9 | CC(=O)N1C[C@@H]2C[C@H]1CN2c1ccc(-n2nc(-c3cc(F)cc4nn(C)cc34)c3cccc(C)c32)cn1 [Example 41, 1-[(1S,4S)-5-(5-{6″-fluoro-2″,7-dimethyl-1H,2″H-[3,4″-biindazol]-1-yl}pyridin-2-yl)-2,5-diazabicyclo[2.2.1]heptan-2-yl]ethan-1-one] | 16.0
10 | Cc1cccc2c(-c3cc(F)cc4nn(C)cc34)nn(-c3ccc(N4CC[C@H](CC(=O)O)C4)nc3)c12 [Example 36, 2-[(3R)-1-(5-{6″-fluoro-2″,7-dimethyl-1H,2″H-[3,4″-biindazol]-1-yl}pyridin-2-yl)pyrrolidin-3-yl]acetic acid] | 24.0
11 | CC(=O)N1CCN(c2ccc(-n3nc(-c4ccc(F)c5nn(C)c(F)c45)c4cccc(C)c43)cn2)CC1 [Example 57, 1-[4-(5-{3″,7″-difluoro-2″,7-dimethyl-1H,2″H-[3,4″-biindazol]-1-yl}pyridin-2-yl)piperazin-1-yl]ethan-1-one] | 27.5
12 | Cc1cccc2c(-c3c(F)cc(F)c4nn(C)cc34)nn(-c3ccc(N4CC5CCC4CC5C(=O)O)nc3)c12 (single isomer, unassigned) [Example 48-1] | 23.9
13 | CC(=O)N1CC2CCC1CN2c1ccc(-n2nc(-c3c(F)cc(F)c4nn(C)cc34)c3cccc(C)c32)cn1 (centres unmarked) [Example 52, 1-[5-(5-{5″,7″-difluoro-2″,7-dimethyl-1H,2″H-[3,4″-biindazol]-1-yl}pyridin-2-yl)-2,5-diazabicyclo [2.2.2]octan-2-yl]ethan-1-one] | 25.8
14 | Cc1c(F)ccc2c(-c3c(F)cc(F)c4nn(C)cc34)nn(-c3ccc(N4C[C@@H]5[C@H](C4)[C@H]5C(=O)O)nc3)c12 [Example 69, (1R,5S,6S)-3-(5-{5″,6,7″-trifluoro-2″,7-dimethyl-1H,2″H-[3,4″-biindazol]-1-yl}pyridin-2-yl)-3-azabicyclo[3.1.0]hexane-6-carboxylic acid] | 35.0
